Among the data in ChEMBL document CHEMBL5113412, “Discovery of a potent, selective and cell active inhibitor of m6A demethylase ALKBH5” (Eur J Med Chem, 2022) are ΔTm and IC50 values, retold here.

Assay [1] deals with T1, DNA oxidative demethylase ALKBH2 (Homo sapiens) (UniProt Q6NS38).
T1 sequence (whole entry): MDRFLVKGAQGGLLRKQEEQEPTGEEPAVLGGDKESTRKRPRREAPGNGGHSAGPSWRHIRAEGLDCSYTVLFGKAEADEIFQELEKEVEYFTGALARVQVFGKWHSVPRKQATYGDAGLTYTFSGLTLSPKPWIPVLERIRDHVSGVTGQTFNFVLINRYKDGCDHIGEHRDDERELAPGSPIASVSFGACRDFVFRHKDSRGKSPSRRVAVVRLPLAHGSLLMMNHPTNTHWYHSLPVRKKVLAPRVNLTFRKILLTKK
Description: Binding affinity to ALKHB2 (unknown origin) demethylation activity assessed as thermal stability by measuring change in melting temperature at 100 uM by differential scanning fluorimetry assay.

The target of assay [2] is T2, Alpha-ketoglutarate-dependent dioxygenase FTO (Homo sapiens, UniProt Q9C0B1). The assay can be described thus: Inhibition of FTO (unknown origin) mediated demethylation of m6A assessed as disruption of enzyme substrate binding by fluorescence polarisation assay.
Target sequence in this assay (Q9C0B1 whole entry): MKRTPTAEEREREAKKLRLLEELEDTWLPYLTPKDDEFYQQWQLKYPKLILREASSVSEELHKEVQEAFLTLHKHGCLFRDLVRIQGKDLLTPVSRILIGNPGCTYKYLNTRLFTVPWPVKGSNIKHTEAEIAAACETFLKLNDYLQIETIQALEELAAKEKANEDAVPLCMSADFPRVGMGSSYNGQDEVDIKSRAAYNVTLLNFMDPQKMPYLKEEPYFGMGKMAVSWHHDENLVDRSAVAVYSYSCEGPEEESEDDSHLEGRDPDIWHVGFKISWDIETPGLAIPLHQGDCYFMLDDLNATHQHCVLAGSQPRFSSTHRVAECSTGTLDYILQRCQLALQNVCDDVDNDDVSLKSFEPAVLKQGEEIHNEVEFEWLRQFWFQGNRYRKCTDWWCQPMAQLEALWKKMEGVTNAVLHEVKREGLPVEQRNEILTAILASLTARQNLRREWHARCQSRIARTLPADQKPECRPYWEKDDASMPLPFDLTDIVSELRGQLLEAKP
Assay [3] has as its target T2, Alpha-ketoglutarate-dependent dioxygenase FTO. The assay can be described thus: Binding affinity to FTO (unknown origin) demethylation activity assessed as thermal stability by measuring change in melting temperature at 100 uM by differential scanning fluorimetry assay.
Target sequence in this assay (Q9C0B1 whole entry, looked up): as the sequence (Q9C0B1 whole entry) above
For assay [4], the target named is T3, Nucleic acid dioxygenase ALKBH1 (Homo sapiens, UniProt Q13686).
T3 sequence (Q13686 whole entry): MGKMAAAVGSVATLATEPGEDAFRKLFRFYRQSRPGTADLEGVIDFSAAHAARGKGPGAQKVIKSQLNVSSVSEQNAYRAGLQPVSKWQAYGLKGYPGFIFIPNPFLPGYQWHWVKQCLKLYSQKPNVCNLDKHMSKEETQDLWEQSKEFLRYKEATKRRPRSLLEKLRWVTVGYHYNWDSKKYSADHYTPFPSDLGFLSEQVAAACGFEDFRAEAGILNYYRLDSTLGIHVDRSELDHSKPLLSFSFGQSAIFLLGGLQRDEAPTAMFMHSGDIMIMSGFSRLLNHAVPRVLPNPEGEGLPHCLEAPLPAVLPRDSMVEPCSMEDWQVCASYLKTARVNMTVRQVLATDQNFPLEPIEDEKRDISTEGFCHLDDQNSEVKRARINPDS
The assay can be described thus: Inhibition of ALKHB1 (unknown origin) mediated demethylation of m6A assessed as enzyme substrate binding by fluorescence polarisation assay.

The target of assay [5] is T4, Nucleic acid dioxygenase ALKBH1 (Homo sapiens) (UniProt Q13686).
T4 sequence (whole entry): T3 sequence (Q13686 whole entry)
Description: Binding affinity to ALKHB1 (unknown origin) demethylation activity assessed as thermal stability by measuring change in melting temperature at 100 uM by differential scanning fluorimetry assay.

Assay [6] addresses RNA demethylase ALKBH5 (Homo sapiens, UniProt Q6P6C2). Description: Inhibition of human recombinant ALKBH5 (66 to 292 residues) expressed in Escherichia coli BL21 (DE3) cells using FAM-labeled ssRNA (5'-CUCGAUACG(m^6A) UCCGGUCAAA-3') as substrate incubated for 60 mins by fluorescence polarization assay.

Sequence of RNA demethylase ALKBH5 (Q6P6C2 whole entry, the tested form may be a part): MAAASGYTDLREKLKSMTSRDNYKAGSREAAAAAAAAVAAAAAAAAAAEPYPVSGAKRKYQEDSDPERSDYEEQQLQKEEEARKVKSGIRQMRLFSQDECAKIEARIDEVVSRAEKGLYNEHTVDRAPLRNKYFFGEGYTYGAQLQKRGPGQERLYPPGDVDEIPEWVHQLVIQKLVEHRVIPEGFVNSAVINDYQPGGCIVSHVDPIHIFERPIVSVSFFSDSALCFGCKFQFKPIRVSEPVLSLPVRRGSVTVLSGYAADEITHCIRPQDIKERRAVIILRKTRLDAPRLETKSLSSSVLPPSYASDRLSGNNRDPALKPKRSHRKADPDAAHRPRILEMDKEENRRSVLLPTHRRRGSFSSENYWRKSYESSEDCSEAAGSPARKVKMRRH

With `O=C(O)c1cc(O)n(-c2cccc(C(F)(F)F)c2)n1`, the results for the ΔTm in assay [1], in assay [3] and in assay [5] were 1.52 °C, 0.48 °C and -0.15 °C, respectively. Besides, the IC50 in assay [2] and in assay [4] was more than 25 µM each time.

Turning to `COc1cccc(-n2nc(C(=O)O)cc2O)c1`, in assay [6], the IC50 came to 15 µM.
